Test [1] concerns A549. The test can be described thus: Antiproliferative activity against human A549 cells assessed as inhibition of cell growth by MTT assay. The class given is functional, cell-based. Background: Formazan colour is commonly taken as a measure of viable cells.
The test system of the next test is HepG2. The test can be described thus: Antiproliferative activity against human HepG2 cells assessed as inhibition of cell growth by MTT assay. The format is functional, cell-based.
The subject of a further test is SiHa. Briefly: Antiproliferative activity against human SiHa cells assessed as inhibition of cell growth by MTT assay. The class given is functional, cell-based.
For a further test, the system named is HCT-116. The test can be described thus: Antiproliferative activity against human HCT-116 cells assessed as inhibition of cell growth by MTT assay. The format is functional, cell-based.
For the next test, the system named is PC-3. Briefly: Antiproliferative activity against human PC-3 cells assessed as inhibition of cell growth by MTT assay. The class given is functional, cell-based.
The test system of a further test is MCF7. The test can be described thus: Antiproliferative activity against human MCF7 cells assessed as inhibition of cell growth by MTT assay. The class given is functional, cell-based.
Test [2] has as its system A549. Briefly: Induction of cell cycle arrest in human A549 cells assessed as accumulation of cells at G0/G1 phase at 3 uM by FACS analysis ( Rvb = 49.93%). The format is functional. (In general: In flow cytometry, cells or beads pass a laser one at a time.)
The test system of test [3] is A549. Briefly: Induction of cell cycle arrest in human A549 cells assessed as accumulation of cells at S phase at 3 uM by FACS analysis ( Rvb = 40.71%). The class given is functional.
Test [4] deals with A549. Briefly: Induction of cell cycle arrest in human A549 cells assessed as accumulation of cells at G2/M phase at 3 uM by FACS analysis ( Rvb = 9.35%). The class given is functional.

For orientation: IC50 means the concentration that gives 50% inhibition. Take `COc1ccc(C#Cc2cc3[nH]c(-c4ccc(OC)c(OC)c4OC)nc3cc2OC)cc1`: the concentration for half-maximal inhibition (IC50) in the test with A549 [1] is above 100 µM; in the test with HepG2 it was 94.8 µM; in the test with SiHa, above 100 µM; in the test with HCT-116, above 100 µM; in the test with PC-3 it was above 100 µM; in the test with MCF7 it was above 100 µM.

Consider `COc1cc2nc(-c3cc(OC)c(OC)cc3OC)[nH]c2cc1/C=C(\C)C(N)=O`, for which the IC50 was 73.4 µM with A549 [1]; 61 µM in the test with HepG2; 33.5 µM in the test with SiHa; 32.9 µM with HCT-116; 22.1 µM with PC-3; 57.3 µM in the test with MCF7.

Take `COc1cc2nc(-c3ccc(OC)c(OC)c3OC)[nH]c2cc1/C=C/C(=O)NC(C)C`: the half-maximal inhibitory concentration (IC50) in the test with A549 [1] is 85.4 µM; in the test with HepG2, 36.8 µM; in the test with SiHa, 72.3 µM; in the test on HCT-116 it was 38.4 µM; in the test on PC-3 it was 46 µM; in the test with MCF7, above 100 µM.

Turning to `COc1cc2nc(-c3ccc(OC)c(OC)c3OC)[nH]c2cc1C#Cc1ccc(Cl)cc1`, the IC50 was above 100 µM in the test on A549 [1]; 66.2 µM with HepG2; above 100 µM with SiHa; 10.4 µM in the test on HCT-116; 20.4 µM with PC-3; above 100 µM with MCF7.

`COc1cc2nc(-c3ccc(OC)c(OC)c3OC)[nH]c2cc1C#Cc1ccccc1F`: the concentration for half-maximal inhibition (IC50) was above 100 µM with A549 [1]; 35.6 µM in the test on HepG2; above 100 µM in the test on SiHa; 39.3 µM with HCT-116; 26.9 µM in the test on PC-3; above 100 µM in the test with MCF7.

For `COc1cc2nc(-c3ccc(OC)c(OC)c3OC)[nH]c2cc1/C=C(\C)C(N)=O`, the IC50 in the test on A549 [1] was above 100 µM; with HepG2, above 100 µM; with SiHa it was above 100 µM; in the test with HCT-116, above 100 µM; with PC-3, 90.8 µM; in the test with MCF7 it was above 100 µM.

As for `Nc1cc(C(F)(F)F)c(-c2cc(N3CCOCC3)nc(N3CCOCC3)n2)cn1` [BUPARLISIB], the 50% inhibitory concentration (IC50) turned out to be 9.75 µM in the test with A549 [1]; 23.6 µM in the test on HepG2; 7.18 µM in the test with SiHa; 3.73 µM in the test with HCT-116; 12.1 µM in the test with PC-3; 16.4 µM in the test with MCF7. Also, the figures for the Activity in the test with A549 [2], in the test on A549 [3] and in the test on A549 [4] were 35.32%, 27.99% and 36.68%, respectively.

In the case of `COc1cc2nc(-c3cc(OC)c(OC)cc3OC)[nH]c2cc1/C=C/C(=O)N1CCOCC1`, the IC50 in the test with A549 [1] is above 100 µM; in the test with HepG2 it was 87.4 µM; with SiHa, 6.57 µM; with HCT-116, 12 µM; with PC-3 it was 8.45 µM; in the test on MCF7 it was 15.5 µM.

Take `COc1cc2nc(-c3ccc(OC)c(OC)c3OC)[nH]c2cc1/C=C/C(=O)NCCO`: the IC50 was above 100 µM with A549 [1]; above 100 µM in the test on HepG2; 22.6 µM in the test with SiHa; 53.9 µM in the test with HCT-116; 65.4 µM in the test on PC-3; above 100 µM in the test with MCF7.

For `COc1cc2nc(-c3ccc(OC)c(OC)c3OC)[nH]c2cc1/C=C/C(N)=O`, the half-inhibitory concentration (IC50) in the test on A549 [1], with HepG2, with SiHa, with HCT-116, in the test with PC-3 and in the test with MCF7 was above 100 µM each time.

Take `COc1cc2nc(-c3cc(OC)c(OC)cc3OC)[nH]c2cc1C#Cc1ccccc1Cl`: the concentration for half-maximal inhibition (IC50) was above 100 µM in the test on A549 [1]; 23.3 µM in the test on HepG2; 90.8 µM in the test with SiHa; above 100 µM with HCT-116; 57.3 µM in the test on PC-3; 27 µM in the test with MCF7.

For `COc1ccc(C#Cc2cc3[nH]c(-c4cc(OC)c(OC)cc4OC)nc3cc2OC)cc1`, the half-maximal inhibitory concentration (IC50) with A549 [1] came to 9.7 µM; in the test on HepG2, 88.7 µM; with SiHa, 33.4 µM; in the test on HCT-116 it was 3.02 µM; with PC-3 it was 20.2 µM; in the test on MCF7 it was 7.14 µM.

Turning to `COc1cc2nc(-c3cc(OC)c(OC)cc3OC)[nH]c2cc1C#Cc1ccc(C(F)(F)F)cc1`, the half-inhibitory concentration (IC50) with A549 [1] was found to be 33.1 µM; in the test on HepG2 it was 44.6 µM; with SiHa it was 24.4 µM; in the test with HCT-116 it was 4.47 µM; with PC-3, 19.5 µM; in the test with MCF7 it was 66.7 µM.

With `COc1cc2nc(-c3cc(OC)c(OC)cc3OC)[nH]c2cc1/C=C/C(=O)NC(C)(C)C`, the half-maximal inhibitory concentration (IC50) in the test on A549 [1] turned out to be 8.36 µM; with HepG2, 13 µM; in the test with SiHa, 3.48 µM; in the test on HCT-116 it was 3.11 µM; with PC-3, 3.74 µM; with MCF7, 21.7 µM.

For the compound `COc1cc2nc(-c3cc(OC)c(OC)cc3OC)[nH]c2cc1/C=C/C(N)=O`, the 50% inhibitory concentration (IC50) in the test with A549 [1] is 93.3 µM; with HepG2 it was above 100 µM; in the test with SiHa, 5.27 µM; with HCT-116, 29 µM; in the test on PC-3, 22.6 µM; with MCF7, 77.8 µM.

For `CCOC(=O)/C=C/c1cc2[nH]c(-c3cc(OC)c(OC)cc3OC)nc2cc1OC`, the half-maximal inhibitory concentration (IC50) stood at 14.8 µM in the test with A549 [1]; 13.7 µM in the test on HepG2; 9.8 µM in the test on SiHa; 6.94 µM with HCT-116; 4.01 µM in the test with PC-3; 22 µM in the test on MCF7.

For the compound `COc1cc2nc(-c3cc(OC)c(OC)cc3OC)[nH]c2cc1C#Cc1ccc(Cl)cc1`, the 50% inhibitory concentration (IC50) with A549 [1] is above 100 µM; with HepG2, 19.4 µM; in the test on SiHa it was above 100 µM; with HCT-116 it was 3.05 µM; in the test with PC-3, 10.5 µM; with MCF7, 6.65 µM.

Take `COc1cc2nc(-c3ccc(OC)c(OC)c3OC)[nH]c2cc1C#Cc1ccccc1Cl`: the IC50 in the test on A549 [1] is above 100 µM; with HepG2 it was 96.8 µM; in the test with SiHa, above 100 µM; in the test on HCT-116, 81.4 µM; in the test on PC-3 it was 22.7 µM; in the test with MCF7 it was above 100 µM.

In the case of `COc1cc2nc(-c3ccc(OC)c(OC)c3OC)[nH]c2cc1/C=C/C(=O)N1CCOCC1`, the IC50 in the test on A549 [1] was above 100 µM; in the test with HepG2 it was above 100 µM; with SiHa, 76 µM; in the test on HCT-116, 67.8 µM; in the test on PC-3 it was 37.6 µM; in the test with MCF7, above 100 µM.

In the case of `COc1cc2nc(-c3ccc(OC)c(OC)c3OC)[nH]c2cc1C#Cc1ccc(C(F)(F)F)cc1`, the IC50 in the test on A549 [1] was 46.1 µM; in the test with HepG2 it was 56.8 µM; in the test with SiHa it was 86.6 µM; with HCT-116, 15 µM; with PC-3, 41.1 µM; with MCF7, above 100 µM.

As for `COc1cc2nc(-c3cc(OC)c(OC)cc3OC)[nH]c2cc1/C=C/C(=O)NC(C)C`, the IC50 is above 100 µM in the test on A549 [1]; 55.6 µM with HepG2; above 100 µM with SiHa; 37.4 µM in the test on HCT-116; 92.6 µM with PC-3; above 100 µM in the test with MCF7.

With `CCOC(=O)/C=C/c1cc2[nH]c(-c3ccc(OC)c(OC)c3OC)nc2cc1OC`, the concentration for half-maximal inhibition (IC50) with A549 [1] is above 100 µM; in the test on HepG2 it was above 100 µM; with SiHa it was 80.6 µM; in the test on HCT-116 it was 75.1 µM; with PC-3, 84.9 µM; with MCF7, above 100 µM.

In the case of `COc1cc2nc(-c3cc(OC)c(OC)cc3OC)[nH]c2cc1/C=C/C(=O)NCCO`, the IC50 with A549 [1], with HepG2, in the test on SiHa, with HCT-116, with PC-3 and with MCF7 was above 100 µM in each case.

For the compound `COc1cc2nc(-c3ccc(OC)c(OC)c3OC)[nH]c2cc1/C=C/C(=O)NC(C)(C)C`, the IC50 is above 100 µM with A549 [1]; above 100 µM with HepG2; 38 µM in the test on SiHa; 15.3 µM in the test with HCT-116; 19.6 µM with PC-3; above 100 µM in the test on MCF7.

For the origin of these results see ChEMBL document CHEMBL5365469, “Design, synthesis and antitumor effects of novel benzimidazole derivatives as PI3K inhibitors” (Bioorg Med Chem Lett, 2023).
